EPA's ToxRefDB 2

Experiments:
[1] = tested on: mouse; settings: Subchronic oral toxicity in rodents, b6c3f1, Gavage/Intubation, dose end: 14 week, group: systemic
[2] = tested on: mouse; settings: Combined chronic toxicity/carcinogenicity, b6c3f1, Oral, Gavage/Intubation, dose end: 105 week, group: systemic
[3] = tested on: rat; settings: Prenatal developmental toxicity study, wistar, Oral, Gavage/Intubation, dose end: 10 GD
[4] = tested on: rat; settings: Prenatal developmental toxicity study, sprague dawley, Oral, Gavage/Intubation, dose end: 17 GD
[5] = tested on: rat; settings: Acute oral toxicity, wistar, Gavage/Intubation, dose end: 7 day, group: systemic, systemic / clinical chemistry / calcium / calcium + systemic / urinalysis / calcium / calcium
[6] = tested on: rat; settings: Prenatal developmental toxicity study, fischer, Oral, Gavage/Intubation, dose end: 10 GD
[7] = tested on: rabbit; settings: Prenatal developmental toxicity study, new zealand white, Oral, Gavage/Intubation, dose end: 19 GD
[8] = tested on: mouse; settings: Subchronic oral toxicity in rodents, other, Gavage/Intubation, dose end: 13 week, group: systemic, systemic / clinical chemistry / alanine aminotransferase (alt/sgpt) / alanine aminotransferase (alt/sgpt) + systemic / clinical chemistry / …
[9] = tested on: rat; settings: Prenatal developmental toxicity study, sprague dawley, Oral, Gavage/Intubation, dose end: 20 GD
[10] = systemic / hematology / erythrocyte (rbc) count differential / erythrocyte (rbc) + systemic / hematology / hematocrit (hct) / hematocrit (…
[11] = systemic / hematology / hemoglobin (hgb) / hemoglobin (hgb)
[12] = systemic / pathology microscopic / ovary / atrophy + systemic / pathology microscopic / ovary / cyst + systemic / pathology microscopic / …
[13] = systemic / pathology microscopic / ovary / cyst + systemic / pathology microscopic / harderian gland / adenoma
[14] = group: developmental, developmental / developmental malformation / bone / [other] + developmental / developmental malformation / bone / incomplete ossification + …
[15] = group: maternal, reproductive / reproductive performance / resorptions / resorptions + reproductive / offspring survival early / dead fetuses / dead fetuses
[16] = group: developmental, developmental / developmental malformation / bone / [other] + developmental / developmental malformation / bone / kinked + developmental / …
[17] = group: developmental, developmental / developmental malformation / heart / [other] + developmental / developmental malformation / ureter / convoluted
[18] = group: maternal, reproductive / reproductive performance / postimplantation loss / postimplantation loss + reproductive / reproductive performance / …
[19] = group: maternal, systemic / organ weight / uterus / nos + reproductive / offspring survival early / live fetuses / live fetuses
[20] = group: developmental, developmental / developmental malformation / bone / [other] + developmental / developmental malformation / general / crown-rump length + …
[21] = group: maternal, reproductive / reproductive performance / resorptions / resorptions + reproductive / offspring survival early / dead fetuses / dead fetuses…
[22] = group: developmental, systemic / in life observation / body weight / fetal weight
[23] = group: maternal, reproductive / reproductive performance / aborted / aborted + systemic / in life observation / body weight / body weight + systemic / in …
[24] = group: developmental, developmental / developmental malformation / bone / [other] + developmental / developmental malformation / bone / fused + developmental / …
[25] = group: maternal, reproductive / reproductive performance / postimplantation loss / postimplantation loss + systemic / in life observation / body weight / …
[26] = group: maternal, systemic / in life observation / body weight / body weight gain

C=CC#N [Acrylonitrile]
LOAEL [1, 10]: > 60 mg/kg/day
NOAEL [1, 10]: ≥ 60 mg/kg/day
LEL [1, 11]: 5 mg/kg/day
NEL [1, 11]: < 5 mg/kg/day
LOAEL [2, 12]: 10 mg/kg/day
NOAEL [2, 12]: 2.5 mg/kg/day
LEL [2, 13]: 2.5 mg/kg/day
NEL [2, 13]: < 2.5 mg/kg/day

CC(=O)Oc1ccccc1C(=O)O [Aspirin]
LEL [3, 14]: 500 mg/kg/day
LOAEL [3, 14]: > 500 mg/kg/day
NEL [3, 14]: < 500 mg/kg/day
NOAEL [3, 14]: ≥ 500 mg/kg/day
LEL [3, 15]: 500 mg/kg/day
LOAEL [3, 15]: > 500 mg/kg/day
NEL [3, 15]: < 500 mg/kg/day
NOAEL [3, 15]: ≥ 500 mg/kg/day
LOAEL [4, 16]: > 1000 mg/kg/day
NOAEL [4, 16]: ≥ 1000 mg/kg/day
LEL [4, 17]: 50 mg/kg/day
NEL [4, 17]: < 50 mg/kg/day
LOAEL [4, 18]: > 1000 mg/kg/day
NOAEL [4, 18]: ≥ 1000 mg/kg/day
LEL [4, 19]: 50 mg/kg/day
NEL [4, 19]: < 50 mg/kg/day
LEL [5]: 100 mg/kg/day
LOAEL [5]: > 100 mg/kg/day
NEL [5]: < 100 mg/kg/day
NOAEL [5]: ≥ 100 mg/kg/day
LEL [6, 20]: 500 mg/kg/day
LOAEL [6, 20]: > 625 mg/kg/day
NEL [6, 20]: < 500 mg/kg/day
NOAEL [6, 20]: ≥ 625 mg/kg/day
NEL ([6]; group: maternal, reproductive / reproductive performance / resorptions / resorptions): 500 mg/kg/day
LEL [6, 21]: 625 mg/kg/day
LOAEL [6, 21]: > 625 mg/kg/day
NOAEL [6, 21]: ≥ 625 mg/kg/day
LEL [7, 22]: 350 mg/kg/day
LOAEL [7, 22]: > 350 mg/kg/day
NEL [7, 22]: 250 mg/kg/day
NOAEL [7, 22]: ≥ 350 mg/kg/day
LOAEL [7, 23]: > 350 mg/kg/day
NEL [7, 23]: 125 mg/kg/day
NOAEL [7, 23]: ≥ 350 mg/kg/day
LEL ([7]; group: maternal, systemic / in life observation / body weight / body weight gain + systemic / in life observation / clinical signs / defecation (diarrhea) + …): 250 mg/kg/day

CC[C@H](C)C(=O)O[C@H]1C[C@@H](C)C=C2C=C[C@H](C)[C@H](CC[C@@H]3C[C@@H](O)CC(=O)O3)[C@H]21 [Lovastatin]
LEL [8]: 30 mg/kg/day
LOAEL [8]: > 30 mg/kg/day
NEL [8]: < 30 mg/kg/day
NOAEL [8]: ≥ 30 mg/kg/day
LOAEL [9, 24]: > 800 mg/kg/day
NOAEL [9, 24]: ≥ 800 mg/kg/day
LEL [9, 22]: 100 mg/kg/day
NEL [9, 22]: < 100 mg/kg/day
LOAEL [9, 25]: > 800 mg/kg/day
NOAEL [9, 25]: ≥ 800 mg/kg/day
LEL [9, 26]: 100 mg/kg/day
NEL [9, 26]: < 100 mg/kg/day
